Values of other authors, collected in patent publication US20240401031A1, “Platform Using iPSC-Derived Cardiomyocytes Carrying Gene Variants as Models of Cardiac Disease and Drug-Response” (SRI INTERNATIONAL, priority 2021, published 2024).

Conditions: source CredibleMeds

Row | SMILES | Risk (Torsade de Pointes)
1 | CN(C)CC/C=C1/c2ccccc2Sc2ccc(Cl)cc21 [Chlorprothixene] | (KR)
2 | O=C1CCc2cc(OCCCCc3nnnn3C3CCCCC3)ccc2N1 [Cilostazol] | (KR)
3 | CN/C(=N/CCSCc1nc[nH]c1C)NC#N [Cimetidine] | (CR)
4 | O=C(O)c1cn(C2CC2)c2cc(N3CCNCC3)c(F)cc2c1=O [Ciprofloxacin] | (KR)
5 | COc1cc(N)c(Cl)cc1C(=O)NC1CCN(CCCOc2ccc(F)cc2)CC1OC (centres unmarked) [Cisapride] | (KR)
6 | CN(C)CCCC1(c2ccc(F)cc2)OCc2cc(C#N)ccc21 (centres unmarked) [Citalopram] | (KR)
7 | CC[C@H]1OC(=O)[C@H](C)[C@@H](O[C@H]2C[C@@](C)(OC)[C@@H](O)[C@H](C)O2)[C@H](C)[C@@H](O[C@@H]2O[C@H](C)C[C@H](N(C)C)[C@H]2O)[C@](C)(OC)C[C@@H](C)C(=O)[C@H](C)[C@@H](O)[C@]1(C)O [Clarithromycin] | (KR)
8 | CC(C)/N=c1\cc2n(-c3ccc(Cl)cc3)c3ccccc3nc-2cc1Nc1ccc(Cl)cc1 [Clofazimine] | (PR)
9 | CN1CCN(C2=Nc3ccccc3Sc3ccc(Cl)cc32)CC1 [Clotiapine] | (PR)
10 | O=C(c1ccc(F)c(F)c1Nc1ccc(I)cc1F)N1CC(O)([C@@H]2CCCCN2)C1 [Cobimetinib] | (PR)
11 | COC(=O)[C@H]1[C@@H](OC(=O)c2ccccc2)C[C@@H]2CC[C@H]1N2C [Cocaine] | (KR)
12 | C[C@@H](Oc1cc(-c2cnn(C3CCNCC3)c2)cnc1N)c1c(Cl)ccc(F)c1Cl [Crizotinib] | (PR)
13 | CC(CN(C)C)CN1c2ccccc2Sc2ccc(C#N)cc21 (centres unmarked) [Cyamemazine] | (PR)
14 | CC(C)(C)c1nc(-c2cccc(NS(=O)(=O)c3c(F)cccc3F)c2F)c(-c2ccnc(N)n2)s1 [Dabrafenib] | (PR)
15 | Cc1nc(Nc2ncc(C(=O)Nc3c(C)cccc3Cl)s2)cc(N2CCN(CCO)CC2)n1 [Dasatinib] | (PR)
16 | C[C@]1(COc2ccc(N3CCC(Oc4ccc(OC(F)(F)F)cc4)CC3)cc2)Cn2cc([N+](=O)[O-])nc2O1 [Delamanid] | (PR)
17 | CNCCCN1c2ccccc2CCc2ccccc21 [Desipramine] | (PR)
18 | [2H]C([2H])([2H])Oc1cc2c(cc1OC([2H])([2H])[2H])C1CC(=O)C(CC(C)C)CN1CC2 (centres unmarked) [Deutetrabenazine] | (PR)
19 | Cc1cccc([C@H](C)c2cnc[nH]2)c1C [Dexmedetomidine] | (PR)
20 | C[C@H](N)Cc1ccccc1 [Dextroamphetamine] | (SR)
21 | CC(C)N(CCC(C(N)=O)(c1ccccc1)c1ccccn1)C(C)C (centres unmarked) [Disopyramide] | (KR)
22 | CC(CCc1ccc(O)cc1)NCCc1ccc(O)c(O)c1 (centres unmarked) [Dobutamine] | (SR)
23 | CN(CCOc1ccc(NS(C)(=O)=O)cc1)CCc1ccc(NS(C)(=O)=O)cc1 [Dofetilide] | (KR)
24 | NCCc1ccc(O)c(O)c1 [Dopamine] | (SR)
25 | CN(C)CCC=C1c2ccccc2COc2ccccc21 [Doxepin] | (CR)
26 | CCCCc1oc2ccc(NS(C)(=O)=O)cc2c1C(=O)c1ccc(OCCCN(CCCC)CCCC)cc1 [Dronedarone] | (KR)

Row | SMILES | Risk (Torsade de Pointes)
27 | O=C(CCCN1CC=C(n2c(=O)[nH]c3ccccc32)CC1)c1ccc(F)cc1 [Droperidol] | (KR)
28 | N[C@H](C(=O)O)[C@H](O)c1ccc(O)c(O)c1 [Droxidopa] | (SR)
29 | O=C1Nc2ccc(Cl)cc2[C@@](C#CC2CC2)(C(F)(F)F)O1 [Efavirenz] | (PR)
30 | CCCCCCCC(=O)N[C@H](CN1CCCC1)[C@H](O)c1ccc2c(c1)OCCO2 [Eliglustat] | (PR)
31 | COC(=O)N[C@@H](C)CNc1nccc(-c2cn(C(C)C)nc2-c2cc(Cl)cc(NS(C)(=O)=O)c2F)n1 [Encorafenib] | (PR)
32 | CCc1ccc(C(=O)C(C)CN2CCCCC2)cc1 (centres unmarked) [Eperisone] | (CR)
33 | CNC[C@H](O)c1ccc(O)c(O)c1 [Epinephrine] | (SR)
34 | COc1cccc2c1C(=O)c1c(O)c3c(c(O)c1C2=O)C[C@@](O)(C(=O)CO)C[C@@H]3O[C@H]1C[C@H](N)[C@@H](O)[C@H](C)O1 [Epirubicin] | (PR)
35 | C=C1C[C@@H]2CC[C@@]34C[C@H]5O[C@H]6[C@@H](O3)[C@H]3O[C@H](CC[C@@H]3O[C@H]6[C@H]5O4)CC(=O)C[C@@H]3[C@@H](OC)[C@@H](C[C@H](O)CN)O[C@H]3C[C@H]3O[C@@H](CC[C@@H]1O2)C[C@@H](C)C3=C [Eribulin] | (PR)
36 | CN(C)CCC[C@@]1(c2ccc(F)cc2)OCc2cc(C#N)ccc21 [Escitalopram] | (KR)
37 | COc1ccc2nc([S@@+]([O-])Cc3ncc(C)c(OC)c3C)[nH]c2c1 [Esomeprazole] | (CR)
38 | NC(N)=Nc1nc(CSCCC(N)=NS(N)(=O)=O)cs1 [Famotidine] | (CR)
39 | NC(=O)OCC(COC(N)=O)c1ccccc1 [Felbamate] | (PR)
40 | CCNC(C)Cc1cccc(C(F)(F)F)c1 (centres unmarked) [Fenfluramine] | (SR)
41 | CCCCCCCCc1ccc(CCC(N)(CO)CO)cc1 [Fingolimod] | (PR)
42 | O=c1[nH]cc(F)c(=O)[nH]1 [Fluorouracil] | (PR)
43 | CNCCC(Oc1ccc(C(F)(F)F)cc1)c1ccccc1 (centres unmarked) [Fluoxetine] | (CR)
44 | C[C@@H]1C[C@H]2[C@@H]3C[C@H](F)C4=CC(=O)C=C[C@]4(C)[C@@]3(F)[C@@H](O)C[C@]2(C)[C@@]1(O)C(=O)SCF [Fluticasone] | (SR)
45 | NS(=O)(=O)c1cc(C(=O)O)c(NCc2ccco2)cc1Cl [Furosemide] | (CR)
46 | C[C@H]1NCc2cc(-c3ccc4c(=O)c(C(=O)O)cn(C5CC5)c4c3OC(F)F)ccc21 [Garenoxacin] | (CR)
47 | COc1c(N2CCNC(C)C2)c(F)cc2c(=O)c(C(=O)O)cn(C3CC3)c12 (centres unmarked) [Gatifloxacin] | (KR)
48 | CCc1nc(C(N)=O)c(Nc2ccc(N3CCC(N4CCN(C)CC4)CC3)c(OC)c2)nc1NC1CCOCC1 [Gilteritinib] | (PR)
49 | CN1CC[C@@H](NC(=O)Nc2ccc(C#N)cc2)C[C@@H]1c1nc2ccccc2[nH]1 [Glasdegib] | (PR)
50 | CN1C2CCCC1CC(NC(=O)c1nn(C)c3ccccc13)C2 (centres unmarked) [Granisetron] | (PR)
51 | NS(=O)(=O)c1cc2c(cc1Cl)NCNS2(=O)=O [Hydrochlorothiazide] | (CR)
52 | CC[C@H]1CN2CC[C@H]1C[C@@H]2[C@@H](O)c1ccnc2ccc(OC)cc12 [Hydroquinidine] | (KR)

Row | SMILES | Risk (Torsade de Pointes)
53 | CCN(CCO)CCCC(C)Nc1ccnc2cc(Cl)ccc12 (centres unmarked) [Hydroxychloroquine] | (KR)
54 | OCCOCCN1CCN(C(c2ccccc2)c2ccc(Cl)cc2)CC1 (centres unmarked) [Hydroxyzine] | (CR)
55 | CCCCCCCN(CC)CCCC(O)c1ccc(NS(C)(=O)=O)cc1 (centres unmarked) [Ibutilide] | (KR)
56 | COc1cc(C(C)=O)ccc1OCCCN1CCC(c2noc3cc(F)ccc23)CC1 [Iloperidone] | (PR)
57 | CN(C)CCCN1c2ccccc2CCc2ccccc21 [Imipramine] | (PR)
58 | CCc1cc2c(cc1CC)CC(NC[C@H](O)c1ccc(O)c3[nH]c(=O)ccc13)C2 [Indacaterol] | (SR)
59 | CC1Cc2ccccc2N1NC(=O)c1ccc(Cl)c(S(N)(=O)=O)c1 (centres unmarked) [Indapamide] | (CR)
60 | CC(C)NCC(O)c1ccc(O)c(O)c1 (centres unmarked) [Isoproterenol] | (SR)
61 | COC(=O)C1=C(C)NC(C)=C(C(=O)OC(C)C)C1c1cccc2nonc12 (centres unmarked) [Isradipine] | (PR)
62 | CCC(C)n1ncn(-c2ccc(N3CCN(c4ccc(OCC5COC(Cn6cncn6)(c6ccc(Cl)cc6Cl)O5)cc4)CC3)cc2)c1=O (centres unmarked) [Itraconazole] | (CR)
63 | COc1cc2c(cc1OC)CC(=O)N(CCCN(C)C[C@H]1Cc3cc(OC)c(OC)cc31)CC2 [Ivabradine] | (CR)
64 | N#Cc1ccnc(N2C(=O)CC[C@H]2C(=O)N(c2cncc(F)c2)[C@H](C(=O)NC2CC(F)(F)C2)c2ccccc2Cl)c1 [Ivosidenib] | (PR)
65 | O=C(c1ccc(F)cc1)C1CCN(CCn2c(=O)[nH]c3ccccc3c2=O)CC1 [Ketanserin] | (PR)
66 | CC(=O)N1CCN(c2ccc(OCC3COC(Cn4ccnc4)(c4ccc(Cl)cc4Cl)O3)cc2)CC1 (centres unmarked) [Ketoconazole] | (CR)
67 | CCOC(=O)C1=C(C)NC(C)=C(C(=O)OCC)C1c1ccccc1/C=C/C(=O)OC(C)(C)C [Lacidipine] | (PR)
68 | Cc1c(OCC(F)(F)F)ccnc1C[S+]([O-])c1nc2ccccc2[nH]1 (centres unmarked) [Lansoprazole] | (CR)
69 | CS(=O)(=O)CCNCc1ccc(-c2ccc3ncnc(Nc4ccc(OCc5cccc(F)c5)c(Cl)c4)c3c2)o1 [Lapatinib] | (PR)
70 | C=C[C@]1(C)C[C@@H](OC(=O)CS[C@@H]2CC[C@@H](N)C[C@H]2O)[C@]2(C)[C@H](C)CC[C@]3(CCC(=O)[C@H]32)[C@@H](C)[C@@H]1O [Lefamulin] | (PR)
71 | CC[C@@H](C(N)=O)N1CCCC1=O [Levetiracetam] | (PR)
72 | COc1ccc2c(c1)N(C[C@H](C)CN(C)C)c1ccccc1S2 [Levomepromazine] | (KR)
73 | CCC(=O)C(C[C@@H](C)N(C)C)(c1ccccc1)c1ccccc1 [Levomethadone] | (PR)
74 | CC[C@H](O)C(C[C@H](C)N(C)C)(c1ccccc1)c1ccccc1 [Levomethadyl] | (KR)
75 | CN[C@H](C)Cc1ccccc1 [Levomethamphetamine] | (SR)
76 | CCN1CCC[C@H]1CNC(=O)c1cc(S(N)(=O)=O)ccc1OC [Levosulpiride] | (KR)
77 | CC(=O)NC[C@H]1CN(c2ccc(N3CCOCC3)c(F)c2)C(=O)O1 [Linezolid] | (PR)
